Reference: patent US12116388B2, “Amylin receptor agonists” (Novo Nordisk A/S, priority 2022, dated 2024)
Starred links: 1 amine or outer side, 2 acyl side, 3 side chain; linkers in the order of their positions; H or OH if unused. Residues, ends and D or L forms follow the SMILES beside them. Groups on a side chain read outwards from the residue. *: point of attachment. C18 diacid = O=C(O)CCCCCCCCCCCCCCCCC(=O)*; γGlu = O=C(O)[C@H](CCC(=O)[*:2])N[*:1]

Columns and labels:
[1] = biological target: T1, human calcitonin receptor (hCTR) (Homo sapiens, UniProt P30988); assay: Human calcitonin receptor (hCTR) in vitro potency assay, CRE-luciferase reporter in BHK cells; type: cell-based; conditions: BHK hCTR/CRE-Luc cells, 3 hours incubation, assay buffer with 1% ovalbumin; read-out: hCalcR potency, EC50
T1 construct: host or cells: BHK (Baby Hamster Kidney), Hollex-1 cell line
T1 sequence (P30988 25-474): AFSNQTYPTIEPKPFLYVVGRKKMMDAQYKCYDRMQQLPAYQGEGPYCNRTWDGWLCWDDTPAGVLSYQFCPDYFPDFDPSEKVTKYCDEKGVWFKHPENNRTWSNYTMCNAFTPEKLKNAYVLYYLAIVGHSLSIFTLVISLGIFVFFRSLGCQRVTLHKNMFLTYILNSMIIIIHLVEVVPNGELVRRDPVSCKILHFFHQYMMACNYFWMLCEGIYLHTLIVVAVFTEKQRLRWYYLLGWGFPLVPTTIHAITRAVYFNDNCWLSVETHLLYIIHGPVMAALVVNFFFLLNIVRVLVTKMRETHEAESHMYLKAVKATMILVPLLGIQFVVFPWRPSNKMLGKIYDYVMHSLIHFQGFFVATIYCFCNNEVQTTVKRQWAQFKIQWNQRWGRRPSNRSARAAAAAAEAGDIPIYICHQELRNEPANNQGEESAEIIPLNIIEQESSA
In short: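 Luciferase signal from a CRE reporter served as the cAMP read-out after 3 h, 37 °C exposure to compound. Cells were stably transfected BHK expressing hCTR, and the buffer was phenol-red-free DMEM with 10 mM HEPES and 1% ovalbumin. Compounds were tested as 7-point, 7-fold dilutions, often from about 10 nM.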

[2] = biological target: T2, human amylin receptor (hAMYR3) (Homo sapiens, UniProt O60896+P30988); assay: Human amylin receptor (hAMYR3) in vitro potency assay, CRE-luciferase reporter in BHK cells; type: cell-based; conditions: BHK hAMYR3/CRE-Luc cells, 3 hours incubation, assay buffer with 1% ovalbumin
T2 construct: host or cells: BHK (Baby Hamster Kidney), Hollex-1 cell line further transfected with RAMP3
T2 sequence (O60896 24-148, one chain of several): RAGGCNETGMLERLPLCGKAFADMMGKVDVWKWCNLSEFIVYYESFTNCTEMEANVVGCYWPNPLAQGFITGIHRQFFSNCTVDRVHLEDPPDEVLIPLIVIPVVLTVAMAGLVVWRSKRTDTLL
In short: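 Luminescence from a CRE-driven luciferase reporter reflects cAMP-mediated receptor activation. Peptides were serially diluted (7 concentrations, 7-fold steps, typically starting near 10 nM) in buffer with 1% ovalbumin and applied for 3 h at 37 °C to BHK cells co-expressing calcitonin receptor (a) and RAMP3.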

CC[C@H](C)[C@H](NC(=O)[C@H](CCCCNC(=O)CC[C@H](NC(=O)CCCCCCCCCCCCCCCCC(=O)O)C(=O)O)NC(=O)CNC(=O)[C@H](Cc1ccccc1)NC(=O)[C@@H]1CCCN1C(=O)[C@H](CC(=O)O)NC(=O)[C@H](CO)NC(=O)[C@H](CO)NC(=O)[C@H](Cc1c[nH]cn1)NC(=O)[C@H](Cc1c[nH]cn1)NC(=O)[C@H](CC(C)C)NC(=O)[C@H](Cc1ccccc1)NC(=O)[C@H](CCC(=O)O)NC(=O)[C@H](C)NC(=O)[C@H](CC(C)C)NC(=O)[C@H](CCCNC(=N)N)NC(=O)[C@H](CCC(N)=O)NC(=O)[C@@H](NC(=O)[C@H](CCC(N)=O)NC(=O)[C@H](C)NC(=O)[C@@H](NC(=O)[C@H](CO)NC(=O)[C@H](CC(C)C)NC(=O)[C@H](CCC(N)=O)NC(=O)[C@H](CO)NC(=O)[C@H](C)NC(C)=O)[C@@H](C)O)[C@@H](C)O)C(=O)N1CCC[C@H]1C(=O)N[C@@H](CO)C(=O)N[C@@H](CO)C(=O)N[C@H](C(=O)N[C@@H](CC(=O)O)C(=O)N[C@H](C(=O)NCC(=O)N1CCC[C@H]1C(=O)N[C@@H](CC(=O)O)C(=O)N[C@H](C(=O)N1CCC[C@H]1C(N)=O)[C@@H](C)O)C(C)C)[C@@H](C)O [Compound 19, N^1-acetyl,N{Epsilon-25}-[(4S)-4-carboxy-4-(17-carboxyheptadecanoylamino)butanoyl]-[Ala1,Ser2,Gln3,Leu4,Ser5,Ala7,Gln8,Glu14,His17,Asp21,Pro22,Lys25,Pro27,Asp31,Pro34,Asp35,Pro37]-human amylin] (Ac-ASQLSTAQTQRLAEFLHHSSDPFGK([γGlu-C18 diacid])IPSSTDVGPDTP-NH2)
EC50 [1]: 1 pM
EC50 [2]: 1.5 pM

CC[C@H](C)[C@H](NC(=O)[C@H](C)NC(=O)CNC(=O)[C@H](Cc1ccccc1)NC(=O)[C@@H]1CCCN1C(=O)[C@H](CC(=O)O)NC(=O)[C@H](CO)NC(=O)[C@H](CO)NC(=O)[C@H](Cc1c[nH]cn1)NC(=O)[C@H](Cc1c[nH]cn1)NC(=O)[C@H](CC(C)C)NC(=O)[C@H](Cc1ccccc1)NC(=O)[C@H](CCC(=O)O)NC(=O)[C@H](C)NC(=O)[C@H](CC(C)C)NC(=O)[C@H](CCCNC(=N)N)NC(=O)[C@H](CCC(N)=O)NC(=O)[C@@H](NC(=O)[C@H](CCC(N)=O)NC(=O)[C@H](C)NC(=O)[C@@H](NC(=O)[C@H](CO)NC(=O)[C@H](CC(C)C)NC(=O)[C@H](Cc1c[nH]cn1)NC(=O)[C@H](CO)NC(=O)[C@H](C)NC(=O)CC[C@H](NC(=O)CCCCCCCCCCCCCCCCC(=O)O)C(=O)O)[C@@H](C)O)[C@@H](C)O)C(=O)N1CCC[C@H]1C(=O)N[C@@H](CO)C(=O)N[C@@H](CO)C(=O)N[C@H](C(=O)N[C@@H](CC(=O)O)C(=O)N[C@H](C(=O)NCC(=O)N1CCC[C@H]1C(=O)N[C@@H](CC(=O)O)C(=O)N[C@H](C(=O)N[C@@H](Cc1ccc(O)cc1)C(N)=O)[C@@H](C)O)C(C)C)[C@@H](C)O [Compound 36, N^1-[(4S)-4-carboxy-4-(17-carboxyheptadecanoylamino)butanoyl]-[Ala1,Ser2,His3,Leu4,Ser5,Ala7,Gln8,Glu14,His17,Asp21,Pro22,Pro27,Asp31,Pro34,Asp35]-human amylin] ({C18 diacid-γGlu}-ASHLSTAQTQRLAEFLHHSSDPFGAIPSSTDVGPDTY-NH2)
EC50 [1]: 3.22 pM
EC50 [2]: 2.96 pM

CC[C@H](C)[C@H](NC(=O)[C@@H]1CCCN1C(=O)CNC(=O)[C@H](Cc1ccccc1)NC(=O)[C@H](Cc1c[nH]cn1)NC(=O)[C@H](Cc1c[nH]cn1)NC(=O)[C@H](CC(C)C)NC(=O)[C@H](Cc1ccccc1)NC(=O)[C@H](CCC(=O)O)NC(=O)[C@H](C)NC(=O)[C@H](CC(C)C)NC(=O)[C@H](CCCNC(=N)N)NC(=O)[C@H](C)NC(=O)[C@@H](NC(=O)[C@H](CCC(N)=O)NC(=O)[C@H](C)NC(=O)[C@@H](NC(=O)[C@H](CO)NC(=O)[C@H](CC(C)C)NC(=O)[C@H](Cc1c[nH]cn1)NC(=O)[C@H](CO)NC(=O)[C@H](C)NC(=O)CC[C@H](NC(=O)CCCCCCCCCCCCCCCCC(=O)O)C(=O)O)[C@@H](C)O)[C@@H](C)O)C(=O)N[C@@H](CC(C)C)C(=O)N1CCC[C@H]1C(=O)N1CCC[C@H]1C(=O)N[C@H](C(=O)N[C@@H](CC(=O)O)C(=O)N[C@H](C(=O)NCC(=O)N[C@@H](CO)C(=O)N[C@@H](CCC(=O)O)C(=O)N[C@H](C(=O)N1CCC[C@H]1C(N)=O)[C@@H](C)O)C(C)C)[C@@H](C)O [Compound 43, N^1-[(4S)-4-carboxy-4-(17-carboxyheptadecanoylamino)butanoyl]-[Ala1,Ser2,His3,Leu4,Ser5,Ala7,Gln8,Ala10,Glu14,His17,Pro25,Pro28,Pro29,Asp31,Glu35,Pro37],des-(19-22)-human amylin] ({C18 diacid-γGlu}-ASHLSTAQTARLAEFLHHFGPILPPTDVGSETP-NH2)
EC50 [1]: 1.76 pM
EC50 [2]: 1.06 pM

CC[C@H](C)[C@H](NC(=O)[C@H](C)NC(=O)CNC(=O)[C@H](Cc1ccccc1)NC(=O)[C@@H]1CCCN1C(=O)[C@H](CC(=O)O)NC(=O)[C@H](CO)NC(=O)[C@H](CO)NC(=O)[C@H](Cc1c[nH]cn1)NC(=O)[C@H](Cc1c[nH]cn1)NC(=O)[C@H](CC(C)C)NC(=O)[C@H](Cc1ccccc1)NC(=O)[C@H](CCC(=O)O)NC(=O)[C@H](C)NC(=O)[C@H](CC(C)C)NC(=O)[C@H](CCCNC(=N)N)NC(=O)[C@H](C)NC(=O)[C@@H](NC(=O)[C@H](CCC(N)=O)NC(=O)[C@H](C)NC(=O)[C@@H](NC(=O)[C@H](CO)NC(=O)[C@H](CC(C)C)NC(=O)[C@H](Cc1c[nH]cn1)NC(=O)[C@H](CO)NC(=O)[C@H](C)NC(=O)CC[C@H](NC(=O)CCCCCCCCCCCCCCCCC(=O)O)C(=O)O)[C@@H](C)O)[C@@H](C)O)C(=O)N1CCC[C@H]1C(=O)N[C@@H](CO)C(=O)N[C@@H](CO)C(=O)N[C@H](C(=O)N[C@@H](CC(=O)O)C(=O)N[C@H](C(=O)NCC(=O)N1CCC[C@H]1C(=O)N[C@@H](CC(=O)O)C(=O)N[C@H](C(=O)N[C@@H](Cc1ccc(O)cc1)C(N)=O)[C@@H](C)O)C(C)C)[C@@H](C)O [Compound 37, N^1-[(4S)-4-carboxy-4-(17-carboxyheptadecanoylamino)butanoyl]-[Ala1,Ser2,His3,Leu4,Ser5,Ala7,Gln8,Ala10,Glu14,His17,Asp21,Pro22,Pro27,Asp31,Pro34,Asp35]-human amylin] ({C18 diacid-γGlu}-ASHLSTAQTARLAEFLHHSSDPFGAIPSSTDVGPDTY-NH2)
EC50 [1]: 2.16 pM
EC50 [2]: 1.68 pM
